Source: US10071086B2, “1H-pyrazolo[3,4-b]pyridines and therapeutic uses thereof” (Samumed, LLC, priority 2012, dated 2018)

Legend:
[1] = system: Wnt pathway; assay: Wnt activity reporter assay (SP5 promoter-luciferase in SW480 cells); assay type: cell-based; conditions: Homo sapiens, SP5 promoter firefly luciferase reporter, read-out: Wnt inhibition
How it was run: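 SW480 cells stably carrying an SP5 promoter (eight TCF/LEF sites)-firefly luciferase reporter were seeded at ~10,000 per well and given half-log compound dilutions from a 10 µM top concentration.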

[2] = system: β-catenin; assay: NL-20 β-catenin reporter assay (primary screening assay for IPF); assay type: cell-based; conditions: transformed human bronchial epithelial cell line NL-20
Text: Compounds of Formulas (I) or (II) were screened in a β-catenin-based reporter assay in a transformed human bronchial epithelial cell line (NL-20).

| IC50 [2] | SMILES | IC50 [1] | IC50 ([2]; NL20) |
| --- | --- | --- | --- |
|  | Nc1cncc(-c2cnc3[nH]nc(-c4nc5c(-c6cccc(F)c6)cncc5[nH]4)c3c2)c1 [Compound 5, 5-(3-(7-(3-Fluorophenyl)-3H-imidazo[4,5-c]pyridin-2-yl)-1H-pyrazolo[3,4-b]pyridin-5-yl)pyridin-3-amine] | 3.9 nM | 175 nM |
|  | CN(C)c1cncc(-c2cnc3[nH]nc(-c4nc5c(-c6cccc(F)c6)cncc5[nH]4)c3c2)c1 [Compound 7, 5-(3-(7-(3-Fluorophenyl)-3H-imidazo[4,5-c]pyridin-2-yl)-1H-pyrazolo[3,4-b]pyridin-5-yl)-N,N-dimethylpyridin-3-amine] | 6 nM | 1900 nM |
|  | CC(C)Nc1cncc(-c2cnc3[nH]nc(-c4nc5c(-c6cccc(F)c6)cncc5[nH]4)c3c2)c1 [Compound 9, 5-(3-(7-(3-Fluorophenyl)-3H-imidazo[4,5-c]pyridin-2-yl)-1H-pyrazolo[3,4-b]pyridin-5-yl)-N-isopropylpyridin-3-amine] | 1.2 nM | 67 nM |
|  | CN1CCN(Cc2cc(F)cc(-c3cncc4[nH]c(-c5n[nH]c6ncc(-c7cccnc7)cc56)nc34)c2)CC1 [Compound 10, 3-(7-(3-Fluoro-5-((4-methylpiperazin-1-yl)methyl)phenyl)-3H-imidazo[4,5-c]pyridin-2-yl)-5-(pyridin-3-yl)-1H-pyrazolo[3,4-b]pyridine] | 263 nM | 247 nM |
|  | CN1CCN(c2cc(F)cc(-c3cncc4[nH]c(-c5n[nH]c6ncc(-c7cccnc7)cc56)nc34)c2)CC1 [Compound 11, 3-(7-(3-Fluoro-5-(4-methylpiperazin-1-yl)phenyl)-3H-imidazo[4,5-c]pyridin-2-yl)-5-(pyridin-3-yl)-1H-pyrazolo[3,4-b]pyridine] | 99 nM | 210 nM |
|  | CN(C)CCNc1cc(F)cc(-c2cncc3[nH]c(-c4n[nH]c5ncc(-c6cccnc6)cc45)nc23)c1 [Compound 12, N1-(3-Fluoro-5-(2-(5-(pyridin-3-yl)-1H-pyrazolo[3,4-b]pyridin-3-yl)-3H-imidazo[4,5-c]pyridin-7-yl)phenyl)-N2,N2-dimethylethane-1,2-diamine] | 21 nM | 310 nM |
|  | CN(C)Cc1cc(F)cc(-c2cncc3[nH]c(-c4n[nH]c5ncc(-c6cccnc6)cc45)nc23)c1 [Compound 14, 1-(3-Fluoro-5-(2-(5-(pyridin-3-yl)-1H-pyrazolo[3,4-b]pyridin-3-yl)-3H-imidazo[4,5-c]pyridin-7-yl)phenyl)-N,N-dimethylmethanamine] | 138 nM | 2030 nM |
|  | CN(C)Cc1cncc(-c2cnc3[nH]nc(-c4nc5c(-c6cccc(F)c6)cncc5[nH]4)c3c2)c1 [Compound 18, 1-(5-(3-(7-(3-Fluorophenyl)-3H-imidazo[4,5-c]pyridin-2-yl)-1H-pyrazolo[3,4-b]pyridin-5-yl)pyridin-3-yl)-N,N-dimethylmethanamine] | 13 nM | 440 nM |
|  | CN(C)Cc1cncc(-c2cnc3[nH]nc(-c4nc5c(-c6cccs6)cncc5[nH]4)c3c2)c1 [Compound 452, N,N-Dimethyl-1-(5-(3-(7-(thiophen-2-yl)-3H-imidazo[4,5-c]pyridin-2-yl)-1H-pyrazolo[3,4-b]pyridin-5-yl)pyridin-3-yl)methanamine] | 48 nM | 1090 nM |
|  | CN1CCN(c2cccc3[nH]c(-c4n[nH]c5ncc(-c6cncc(NC(=O)C7CCC7)c6)cc45)nc23)CC1 [Compound 752, N-(5-(3-(4-(4-Methylpiperazin-1-yl)-1H-benzo[d]imidazol-2-yl)-1H-pyrazolo[3,4-b]pyridin-5-yl)pyridin-3-yl)cyclobutanecarboxamide] | 226 nM |  |
|  | CN1CCN(c2cccc3[nH]c(-c4n[nH]c5ncc(-c6cncc(CN7CCC(F)(F)C7)c6)cc45)nc23)CC1 [Compound 758, 5-(5-((3,3-Difluoropyrrolidin-1-yl)methyl)pyridin-3-yl)-3-(4-(4-methylpiperazin-1-yl)-1H-benzo[d]imidazol-2-yl)-1H-pyrazolo[3,4-b]pyridine] | 48 nM |  |
|  | Nc1cncc(-c2cnc3[nH]nc(-c4nc5ccccc5[nH]4)c3c2)c1 [Compound 761, 5-(3-(1H-Benzo[d]imidazol-2-yl)-1H-pyrazolo[3,4-b]pyridin-5-yl)pyridin-3-amine] | 320 nM |  |
|  | CN(C)c1cncc(-c2cnc3[nH]nc(-c4nc5ccccc5[nH]4)c3c2)c1 [Compound 765, 5-(3-(1H-Benzo[d]imidazol-2-yl)-1H-pyrazolo[3,4-b]pyridin-5-yl)-N,N-dimethylpyridin-3-amine] | 27 nM |  |
|  | CC(C)(C)CC(=O)Nc1cncc(-c2cnc3[nH]nc(-c4nc5ccccc5[nH]4)c3c2)c1 [Compound 774, N-(5-(3-(1H-Benzo[d]imidazol-2-yl)-1H-pyrazolo[3,4-b]pyridin-5-yl)pyridin-3-yl)-3,3-dimethylbutanamide] | 200 nM |  |
|  | c1ccc(CNCc2cncc(-c3cnc4[nH]nc(-c5nc6ccccc6[nH]5)c4c3)c2)cc1 [Compound 781, 1-(5-(3-(1H-Benzo[d]imidazol-2-yl)-1H-pyrazolo[3,4-b]pyridin-5-yl)pyridin-3-yl)-N-benzylmethanamine] | 1440 nM |  |
|  | CCC(=O)Nc1cncc(-c2cnc3[nH]nc(-c4nc5c(-c6ccsc6)cccc5[nH]4)c3c2)c1 [Compound 785, N-(5-(3-(4-(Thiophen-3-yl)-1H-benzo[d]imidazol-2-yl)-1H-pyrazolo[3,4-b]pyridin-5-yl)pyridin-3-yl)propionamide] | 10 nM |  |
|  | CC(C)C(=O)Nc1cncc(-c2cnc3[nH]nc(-c4nc5c(-c6ccsc6)cccc5[nH]4)c3c2)c1 [Compound 793, N-(5-(3-(4-(Thiophen-3-yl)-1H-benzo[d]imidazol-2-yl)-1H-pyrazolo[3,4-b]pyridin-5-yl)pyridin-3-yl)isobutyramide] | 16 nM |  |
|  | CN(C)Cc1cncc(-c2cnc3[nH]nc(-c4nc5c(-c6ccsc6)cccc5[nH]4)c3c2)c1 [Compound 797, N,N-Dimethyl-1-(5-(3-(4-(thiophen-3-yl)-1H-benzo[d]imidazol-2-yl)-1H-pyrazolo[3,4-b]pyridin-5-yl)pyridin-3-yl)methanamine] | 32 nM |  |
|  | c1cc(-c2ccsc2)c2nc(-c3n[nH]c4ncc(-c5cncc(CN6CCCCC6)c5)cc34)[nH]c2c1 [Compound 799, 5-(5-(Piperidin-1-ylmethyl)pyridin-3-yl)-3-(4-(thiophen-3-yl)-1H-benzo[d]imidazol-2-yl)-1H-pyrazolo[3,4-b]pyridine] | 82 nM |  |
|  | O=C(Nc1cncc(-c2cnc3[nH]nc(-c4nc5c(-c6ccsc6)cccc5[nH]4)c3c2)c1)C1CC1 [Compound 803, N-(5-(3-(4-(Thiophen-3-yl)-1H-benzo[d]imidazol-2-yl)-1H-pyrazolo[3,4-b]pyridin-5-yl)pyridin-3-yl)cyclopropanecarboxamide] | 17 nM |  |
|  | CC(C)(C)C(=O)Nc1cncc(-c2cnc3[nH]nc(-c4nc5c(-c6ccoc6)cccc5[nH]4)c3c2)c1 [Compound 818, N-(5-(3-(4-(Furan-3-yl)-1H-benzo[d]imidazol-2-yl)-1H-pyrazolo[3,4-b]pyridin-5-yl)pyridin-3-yl)pivalamide] | 50 nM |  |
|  | CCCC(=O)Nc1cncc(-c2cnc3[nH]nc(-c4nc5c(-c6ccoc6)cccc5[nH]4)c3c2)c1 [Compound 827, N-(5-(3-(4-(Furan-3-yl)-1H-benzo[d]imidazol-2-yl)-1H-pyrazolo[3,4-b]pyridin-5-yl)pyridin-3-yl)butyramide] | 63 nM |  |
|  | c1cncc(-c2cnc3[nH]nc(-c4nc5c(-c6cccs6)cccc5[nH]4)c3c2)c1 [Compound 888, 5-(Pyridin-3-yl)-3-(4-(thiophen-2-yl)-1H-benzo[d]imidazol-2-yl)-1H-pyrazolo[3,4-b]pyridine] | 12 nM |  |
|  | c1csc(-c2cccc3[nH]c(-c4n[nH]c5ncc(-c6cncc(CN7CCCC7)c6)cc45)nc23)c1 [Compound 898, 5-(5-(Pyrrolidin-1-ylmethyl)pyridin-3-yl)-3-(4-(thiophen-2-yl)-1H-benzo[d]imidazol-2-yl)-1H-pyrazolo[3,4-b]pyridine] | 120 nM |  |
| 7000 nM | O=C1C(Cc2ccc(O)cc2)N2C(=O)CCN(C(=O)NCc3ccccc3)C2CN1Cc1cccc2ccccc12 (stereo not shown) [ICG-001, reference compound] |  |  |
